Assay results published in patent publication US20130072505A1, “6,9-Disubstituted Purine Derivatives and Their Use for Treating Skin” (priority 2006, published 2013).

Test system: normal, human-derived epidermal keratinocytes (NHEK)
Experiment: Epiderm MTT Viablity Assay
Type: cell-based
Description: Using MatTek Corporation's EpiDerm™ System (consisting of normal, human-derived epidermal keratinocytes (NHEK) which have been cultured to form a multilayered, highly differentiated model of the human epidermis), it was determined that 6-furfurylamino-9-(2-tetrahydropyranyl)purine would be expected to be classified as non-irritating.

SMILES: c1coc(CNc2ncnc3c2ncn3C2CCCCO2)c1 (stereo not shown) [6-furfurylamino-9-(2-tetrahydropyranyl)purine]
- irritation classification, EpiDerm System: non-irritating
